Our source for the emission maximum values is the Deep4Chem optical property database.

Structures are written as SMILES.

The nature of this data set: solvent given as SMILES.

Take `NS(=O)(=O)c1ccc(N2N=C(c3ccc(O)cc3)CC2c2ccccc2)cc1` (stereo not given): the emission maximum was 418 nm (in C1CCOC1); 417 nm (in C1COCCO1); 417 nm (in CC#N); 423 nm (in CC(C)O); 428 nm (in CCO); 416 nm (in CCOC(C)=O). Also, the emission maximum by setting is: (in CN(C)C=O) 422 nm; (in CO) 432 nm; (in CS(C)=O) 424 nm; (in O) 448 nm.
`CCOC(=O)/C(C)=C/C1=C(c2ccc(C)cc2)C2=Nc3c(-c4ccc(C)cc4)c(Br)c(-c4ccc(C)cc4)n3[B-](F)(F)[N+]2=C1c1ccc(C)cc1` returned an emission maximum (in ClC(Cl)Cl) of 702 nm.
Regarding `CCCCOc1c(-c2ccc(C=O)cc2)cc2cc(-c3ccc(C=O)cc3)c(OCCCC)c3c4c(OCCCC)c(-c5ccc(C=O)cc5)cc5cc(-c6ccc(C=O)cc6)c(OCCCC)c(c1c23)c54`, the emission maximum (in ClCCl) was 500 nm.
The same measure, in the same setting: for `CCCC1=Cc2nc1ccc1[nH]c(cc1CCC)c1nc(c(NC(=O)CCCC(=O)O)cc3[nH]c2cc3CCC)C(CCC)=C1` the value was 680 nm.
The molecule `CCC1=C(C)C(=O)n2c1cc1c(C)c(CCC(=O)O)c(C)n1c2=O` registered an emission maximum (in CO) of 535 nm, an emission maximum (in CS(C)=O) of 510 nm, an emission maximum (in ClC(Cl)Cl) of 490 nm and an emission maximum (in c1ccccc1) of 480 nm.
Turning to `O=c1c2ccccc2n(-c2ccc(-c3ccc(-n4c5ccccc5c(=O)c5ccccc54)cc3)cc2)c2ccccc12`, under “in ClCCl”, the emission maximum is on record as 405 nm.
Regarding `CCN1c2ccc(/C=N/Nc3ccccn3)cc2Sc2cc(-c3ccc(OC)cc3)ccc21`, the emission maximum turned out to be 491 nm (in C1CCOC1), 503 nm (in CS(C)=O), 484 nm (in Cc1ccccc1) and 497 nm (in ClCCl).
As for `CC1(C)C2=C(c3ccc(N(c4ccccc4)c4ccccc4)cc31)P(=O)(c1ccccc1)c1ccccc12` (stereo not given), the emission maximum stood at 580 nm (in CC#N), 598 nm (in CO) and 511 nm (in Cc1ccccc1).
On to `F[B-]1(F)N2C=CN=CC2=[N+]2[N+]1=Cc1c(-c3ccccc3)cc(-c3ccccc3)n1[B-]2(F)F`, for which the emission maximum (in ClCCl) is 560 nm.
In the case of `CCCCN1/C(=C/C=C/C2=[N+](C)c3ccccc3C2(C)C)Oc2ccccc21`, the emission maximum (in CS(C)=O) is 537 nm.
In the case of `CCCCN(CCCC)c1ccc(C#Cc2cc(C#Cc3c(F)c(F)c(F)c(F)c3F)c(C#Cc3c(F)c(F)c(F)c(F)c3F)cc2C#Cc2ccc(N(CCCC)CCCC)cc2)cc1`, the emission maximum runs as follows: (in ClCCl) 556 nm; (in c1ccccc1) 505 nm.
For the setting “in ClCCl”, `CC(C)[Si](C#Cc1c2nc3ccccc3nc2c(C#C[Si](C(C)C)(C(C)C)C(C)C)c2nc3c4ccccc4c(=O)c4ccccc4c3nc12)(C(C)C)C(C)C` yielded an emission maximum of 627 nm.
In the case of `[O-]c1c(-c2nc3ccccc3s2)cc2ccc3cccc4ccc1c2c34`, the emission maximum by setting is: (in CC#N) 553.72 nm; (in CS(C)=O) 555 nm.
Regarding `Cc1cc(C)c(-c2nnc(-c3ccc(-n4c5ccccc5c5ccccc54)cc3)o2)c(C)c1`, the emission maximum was 435 nm (in CCO) and 379 nm (in Cc1ccccc1).
Turning to `CC(C)(C)c1ccc(C2=c3sc4ccccc4c3=[N+]3C2=Nc2c(-c4ccc(C(C)(C)C)cc4)c4sc5ccccc5c4n2[B-]3(F)F)cc1`, the emission maximum runs as follows: (in C1CCOC1) 800 nm; (in Cc1ccccc1) 796 nm; (in ClC(Cl)Cl) 794 nm.
Consider `CCC1=C(C)C(=O)n2c1cc1c(C)c(CC)c(C)n1c2=O`, for which the emission maximum is, setting by setting: (in CO) 540 nm; (in CS(C)=O) 510 nm; (in ClC(Cl)Cl) 500 nm; (in c1ccccc1) 500 nm.
In turn, `C1=C2c3cc4ccccc4cc3C3=[N+]2[B-]2(Oc4ccccc43)Oc3ccccc3-c3c4cc5ccccc5cc4c1n32` (stereo not given) registered an emission maximum (in C1CCOC1) of 832 nm.
Where the note is “in ClCCl”, `c1ccc2c(C3=C(c4cccc5ccccc45)c4cccc5c4c(cc4nc6ccccc6nc45)O3)cccc2c1` displayed an emission maximum of 538 nm.
Molecule `N#Cc1ccc(-c2cc(-c3ccc(N4CCCC4)cc3)nc(-c3ccccc3)n2)cc1` yielded an emission maximum (in ClC(Cl)Cl) of 518 nm.
Consider `CCCCCCCCCCCCN1C(=O)c2ccc3c4ccc5c6c(ccc(c7ccc(c2c37)C1=O)c64)C(=O)NC5=O`, for which, under “in CN(C)C=O”, the emission maximum was determined as 535 nm.
Under “in C1CCOC1”, `C1=C(c2ccccc2)C=C(c2ccccc2)/C1=C/c1ccc2ccc3cccc4ccc1c2c34` displayed an emission maximum of 480 nm.
For the setting “in ClC(Cl)Cl”, `CCCCCCCCn1c(=O)c2cc3cc4cc5c(=O)n(CCCCCCCC)c(=O)c5cc4c(C#Cc4ccc(N(c5ccccc5)c5ccccc5)cc4)c3cc2c1=O` showed an emission maximum of 611 nm.
Still for that read-out and setting: then `c1cc2cc(c1)c1cccc(c1)c1cccc(c1)c1cccc(c1)c1cccc(c1)c1cccc2c1`, with 337 nm.
As to `NS(=O)(=O)c1ccc(N2N=C(c3ccc(O)cc3)CC2c2ccc(Cl)cc2)cc1` (stereo not given), the emission maximum reads like this: (in C1CCOC1) 418 nm; (in C1COCCO1) 417 nm; (in CC#N) 417 nm; (in CC(C)O) 423 nm; (in CCO) 427 nm; (in CCOC(C)=O) 416 nm. For the same molecule, the emission maximum turned out to be 422 nm (in CN(C)C=O), 431 nm (in CO), 424 nm (in CS(C)=O) and 448 nm (in O).
Take `C/C(=C\c1ccc(C)cc1)c1nc2ccccc2o1`: the emission maximum reads like this: (in C1CCCCC1) 370 nm; (in CO) 380 nm.
`COc1ccc(C2=C(c3ccc(OC)cc3)c3cccc4c5c(cc(c34)O2)=NC2C=C(Br)C(Br)=CC2N=5)cc1` (stereo not given) registered an emission maximum (in ClCCl) of 609 nm.
`CCN(CC)c1ccc(-c2nc3c(c4c2-c2ccccc2CC4)-c2ccccc2CC3)cc1` showed an emission maximum (in C1CCOC1) of 452 nm; an emission maximum (in CC#N) of 463 nm; an emission maximum (in CCCCCC) of 425 nm; an emission maximum (in CCOC(C)=O) of 449 nm; an emission maximum (in CO) of 461 nm; an emission maximum (in CS(C)=O) of 470 nm. In addition, the emission maximum by setting is: (in Cc1ccccc1) 437 nm; (in ClCCl) 449 nm.
For the molecule `COc1ccc(C#Cc2ccc3nc4ccc(C#Cc5ccc(OC)cc5)cn4c(=O)c3c2)cc1`, under “in ClCCl”, the emission maximum is 486 nm.
For the setting “in CO”, `COc1ccc2[nH]cc(/C=C/C3=[NH+]c4cccc5cccc3c45)c2c1` had an emission maximum of 583 nm.
In the case of `N#Cc1cc2ccc(O)cc2oc1=O`, the emission maximum runs as follows: (in C1CCCCC1) 411 nm; (in C1CCOC1) 405 nm; (in CC#N) 402 nm; (in CCOC(C)=O) 406 nm; (in CS(C)=O) 401 nm; (in ClC(Cl)Cl) 408 nm. Where the note is “in O”, the emission maximum amounted to 410 nm.
In turn, `N#C[Se]CCCCCOc1ccc2ccc(=O)oc2c1` returned an emission maximum (in C1CCCCC1) of 378 nm; an emission maximum (in C1CCOC1) of 391 nm; an emission maximum (in C1COCCO1) of 386 nm; an emission maximum (in CC#N) of 387 nm; an emission maximum (in CCCCCCC) of 391 nm; an emission maximum (in CCO) of 386 nm. For the same molecule, the emission maximum runs as follows: (in CN(C)C=O) 396 nm; (in CO) 391 nm; (in O) 397 nm; (in OCCO) 392 nm.
In turn, `C(#Cc1cc(C#Cc2cccs2)c(C#Cc2cccs2)c(C#Cc2cccs2)c1C#Cc1cccs1)c1cccs1` showed an emission maximum (in ClCCl) of 425 nm.
As for `CCOC(=O)c1c(-c2cc3ccccc3oc2=O)nn(-c2ccc(OC)cc2)c1C(=O)OCC`, the emission maximum (in ClCCl) was 457 nm.
With `CCn1c2ccccc2c2cc(C#Cc3cc(C#Cc4ccc5c(c4)c4ccccc4n5CC)nc(S(C)(=O)=O)n3)ccc21`, the emission maximum runs as follows: (in C1CCOC1) 496 nm; (in CCOC(C)=O) 491 nm; (in CN(C)C=O) 550 nm; (in Cc1ccccc1) 447 nm; (in ClCCl) 510 nm.
As for `COc1ccc(/C=C/c2ccccc2)cc1`, the emission maximum (in C1CCCCC1) stood at 364 nm; the emission maximum (in CC#N) stood at 374 nm; the emission maximum (in CC(C)O) amounted to 365 nm; the emission maximum (in CCCCOCCCC) is listed as 367 nm; the emission maximum (in CCOC(C)=O) is given as 366 nm; the emission maximum (in CCOCC) is 366 nm.
As for `FC(F)(F)c1ccc(-c2pc3ccccc3s2)cc1` (stereo not given), the emission maximum (in CC#N) is 430 nm.
Turning to `O=c1cc(-c2ccccc2)oc(-c2ccc(-c3nc4ccccn4c3NC3CCCCC3)cc2)c1`, under “in ClCCl”, the emission maximum was 508 nm.
Still for that read-out and setting: for `CCCCCCn1c(=O)c2c3[nH]c4ccccc4oc3c3c(=O)n(CCCCCC)c(=O)c3c2c1=O` the value was 560 nm; for `CCCCCCCCCCCCCCCCCCOC(=O)/C=C/C1=CC2=C(c3c(C)cc(C)cc3C)c3cc(/C=C/C(=O)OCCCCCCCCCCCCCCCCCC)cn3[B-](F)(F)[N+]2=C1`, 606 nm.
Under “in Cc1ccccc1”, `Cc1ccc2c(c1)C1(c3ccccc3-c3ccccc31)c1cc(C)ccc1N2c1ccc2c(c1)Sc1ccccc1P2(=O)c1ccccc1` (stereo not given) yielded an emission maximum of 454.61 nm.
Regarding `CCCn1c2cccc3oc4cccc5c4[c+](c32)c2c1cccc2n5CCC`, under “in CC#N”, the emission maximum turned out to be 590 nm.
Regarding `O=Cc1ccc(-c2ccc(C3=CCC(c4ccccc4)CC3)s2)s1` (stereo not given), the emission maximum reads like this: (in C1CCOC1) 446 nm; (in CC#N) 483 nm; (in CCCCCC) 443 nm; (in CCO) 498 nm; (in OCCOCCO) 506 nm; (in c1ccncc1) 481 nm.
`ClC(Cl)=C1c2ccccc2C(C2(Cl)c3ccccc3C(=C(Cl)Cl)c3ccccc32)c2ccccc21` (stereo not given): the emission maximum by setting is: (in C1CCCCC1) 425.81 nm; (in CCCCCO) 442.64 nm; (in CCCCO) 446.26 nm; (in CCCO) 443.26 nm; (in CCO) 447.14 nm; (in CO) 449.43 nm.
Turning to `COc1ccc(OC)cc1`, the emission maximum (in C1CCCCC1) is reported as 323.21 nm.
